Laboratory results published in paper PMC10088252.
Where two headings read alike, the source gives them in different places.

Procedure: Dose adjustment was allowed according to the severity of toxicity [Supplementary Table 1].
The primary endpoints were safety, ORR and DCR assessed by investigators. […] AEs referred to treatment-emergent adverse events (TEAEs) and TRAEs were assessed by investigators. Serious adverse events (SAEs) referred to AEs meeting at least one of the following criteria: event leading to death; life-threatening event; event requiring hospitalization or extension of hospital stay; event leading to persistent or evident disability or dysfunction; event leading to congenital malformation or birth defect or event which might lead to injury or that need medical treatment to avoid the above mentioned important medical events.

SMILES: O=C(Nc1ccc(Oc2ccnc3c2CCN3)c(F)c1)c1c[nH]cc(-c2ccc(F)cc2)c1=O
- TRAE Rash maculo-papular, any grade (600 mg QD (n=10)): 0 n (%)
- TRAE Rash maculo-papular, grade 3-4 (600 mg QD (n=10)): 0 n (%)
- TRAE Sinus tachycardia, any grade (600 mg QD (n=10)): 1 (10.0) n (%)
- TRAE Sinus tachycardia, grade 3-4 (600 mg QD (n=10)): 0 n (%)
- TRAE Skin fissures, any grade (600 mg QD (n=10)): 1 (10.0) n (%)
- TRAE Skin fissures, grade 3-4 (600 mg QD (n=10)): 1 (10.0) n (%)
- TRAE Supraventricular extrasystoles, any grade (600 mg QD (n=10)): 1 (10.0) n (%)
- TRAE Supraventricular extrasystoles, grade 3-4 (600 mg QD (n=10)): 0 n (%)
- TRAE Thrombocytopenia, any grade (600 mg QD (n=10)): 1 (10.0) n (%)
- TRAE Thrombocytopenia, grade 3-4 (600 mg QD (n=10)): 1 (10.0) n (%)
- TRAE Upper respiratory tract infection, any grade (600 mg QD (n=10)): 0 n (%)
- TRAE Upper respiratory tract infection, grade 3-4 (600 mg QD (n=10)): 0 n (%)
- TRAE Urinary retention, any grade (600 mg QD (n=10)): 1 (10.0) n (%)
- TRAE Urinary retention, grade 3-4 (600 mg QD (n=10)): 0 n (%)
- TRAE Urinary tract infection, any grade (600 mg QD (n=10)): 2 (20.0) n (%)
- TRAE Urinary tract infection, grade 3-4 (600 mg QD (n=10)): 0 n (%)
- TRAE Ventricular arrhythmia, any grade (600 mg QD (n=10)): 1 (10.0) n (%)
- TRAE Ventricular arrhythmia, grade 3-4 (600 mg QD (n=10)): 0 n (%)
- TRAE Ventricular extrasystoles, any grade (600 mg QD (n=10)): 0 n (%)
- TRAE Ventricular extrasystoles, grade 3-4 (600 mg QD (n=10)): 0 n (%)
- TRAE Vomiting, any grade (600 mg QD (n=10)): 0 n (%)
- TRAE Vomiting, grade 3-4 (600 mg QD (n=10)): 0 n (%)
- TRAE Weight loss, any grade (600 mg QD (n=10)): 1 (10.0) n (%)
- TRAE Weight loss, grade 3-4 (600 mg QD (n=10)): 0 n (%)
- SAEs, patients (Total (n=38)): 13.2%
- TRAE Accessory nerve disorder, any grade (Total (n=38)): 1 (2.6) n (%)
- TRAE Accessory nerve disorder, grade 3-4 (Total (n=38)): 0 n (%)
- TRAE Activated partial thromboplastin time prolonged, any grade (Total (n=38)): 2 (5.3) n (%)
- TRAE Activated partial thromboplastin time prolonged, grade 3-4 (Total (n=38)): 0 n (%)
- TRAE Anaemia, any grade (Total (n=38)): 2 (5.3) n (%)
- TRAE Anaemia, grade 3-4 (Total (n=38)): 1 (2.6) n (%)
- TRAE Anaesthesia oral, any grade (Total (n=38)): 1 (2.6) n (%)
- TRAE Anaesthesia oral, grade 3-4 (Total (n=38)): 0 n (%)
- TRAE Arrhythmia, any grade (Total (n=38)): 1 (2.6) n (%)
- TRAE Arrhythmia, grade 3-4 (Total (n=38)): 0 n (%)
- TRAE Arthralgia, any grade (Total (n=38)): 1 (2.6) n (%)
- TRAE Arthralgia, grade 3-4 (Total (n=38)): 0 n (%)
- TRAE Asthenia, any grade (Total (n=38)): 5 (13.2) n (%)
- TRAE Asthenia, grade 3-4 (Total (n=38)): 1 (2.6) n (%)
- TRAE Blister, any grade (Total (n=38)): 1 (2.6) n (%)
- TRAE Blister, grade 3-4 (Total (n=38)): 0 n (%)
- TRAE Chest discomfort, any grade (Total (n=38)): 1 (2.6) n (%)
- TRAE Chest discomfort, grade 3-4 (Total (n=38)): 0 n (%)
- TRAE Chronic kidney disease, any grade (Total (n=38)): 1 (2.6) n (%)
- TRAE Chronic kidney disease, grade 3-4 (Total (n=38)): 0 n (%)
- TRAE Constipation, any grade (Total (n=38)): 8 (21.1) n (%)
- TRAE Constipation, grade 3-4 (Total (n=38)): 0 n (%)
- TRAE Cough, any grade (Total (n=38)): 1 (2.6) n (%)
- TRAE Cough, grade 3-4 (Total (n=38)): 0 n (%)
- TRAE Decreased Ccr, any grade (Total (n=38)): 6 (15.8) n (%)
- TRAE Decreased Ccr, grade 3-4 (Total (n=38)): 0 n (%)
- TRAE Decreased appetite, any grade (Total (n=38)): 5 (13.2) n (%)
- TRAE Decreased appetite, grade 3-4 (Total (n=38)): 1 (2.6) n (%)
- TRAE Diarrhoea, any grade (Total (n=38)): 3 (7.9) n (%)
- TRAE Diarrhoea, grade 3-4 (Total (n=38)): 0 n (%)
- TRAE Dizziness, any grade (Total (n=38)): 1 (2.6) n (%)
- TRAE Dizziness, grade 3-4 (Total (n=38)): 0 n (%)
- TRAE Dry mouth, any grade (Total (n=38)): 3 (7.9) n (%)
- TRAE Dry mouth, grade 3-4 (Total (n=38)): 0 n (%)
- TRAE Dysgeusia, any grade (Total (n=38)): 9 (23.7) n (%)
- TRAE Dysgeusia, grade 3-4 (Total (n=38)): 1 (2.6) n (%)
- TRAE Dyskinesia, any grade (Total (n=38)): 1 (2.6) n (%)
- TRAE Dyskinesia, grade 3-4 (Total (n=38)): 1 (2.6) n (%)
- TRAE Dysphonia, any grade (Total (n=38)): 1 (2.6) n (%)
- TRAE Dysphonia, grade 3-4 (Total (n=38)): 0 n (%)
- TRAE Dyspnoea, any grade (Total (n=38)): 1 (2.6) n (%)
- TRAE Dyspnoea, grade 3-4 (Total (n=38)): 1 (2.6) n (%)
- TRAE Electrocardiogram QT prolonged, any grade (Total (n=38)): 1 (2.6) n (%)
- TRAE Electrocardiogram QT prolonged, grade 3-4 (Total (n=38)): 0 n (%)
- TRAE Elevated ALT, any grade (Total (n=38)): 14 (36.8) n (%)
- TRAE Elevated ALT, grade 3-4 (Total (n=38)): 0 n (%)
- TRAE Elevated AST, any grade (Total (n=38)): 11 (28.9) n (%)
- TRAE Elevated AST, grade 3-4 (Total (n=38)): 0 n (%)
- TRAE Elevated D dimer, any grade (Total (n=38)): 1 (2.6) n (%)
- TRAE Elevated D dimer, grade 3-4 (Total (n=38)): 0 n (%)
- TRAE Elevated GGT, any grade (Total (n=38)): 1 (2.6) n (%)
- TRAE Elevated GGT, grade 3-4 (Total (n=38)): 0 n (%)
- TRAE Elevated LDH, any grade (Total (n=38)): 1 (2.6) n (%)
- TRAE Elevated LDH, grade 3-4 (Total (n=38)): 0 n (%)
- TRAE Elevated alpha-HBDH, any grade (Total (n=38)): 1 (2.6) n (%)
- TRAE Elevated alpha-HBDH, grade 3-4 (Total (n=38)): 0 n (%)
- TRAE Elevated bilirubin, any grade (Total (n=38)): 3 (7.9) n (%)
- TRAE Elevated bilirubin, grade 3-4 (Total (n=38)): 0 n (%)
- TRAE Elevated blood creatinine, any grade (Total (n=38)): 7 (18.4) n (%)
- TRAE Elevated blood creatinine, grade 3-4 (Total (n=38)): 0 n (%)
- TRAE Elevated creatine phosphokinase, any grade (Total (n=38)): 3 (7.9) n (%)
- TRAE Elevated creatine phosphokinase, grade 3-4 (Total (n=38)): 0 n (%)
- TRAE Elevated serum urea, any grade (Total (n=38)): 1 (2.6) n (%)
- TRAE Elevated serum urea, grade 3-4 (Total (n=38)): 0 n (%)
- TRAE Elevated troponin, any grade (Total (n=38)): 1 (2.6) n (%)
- TRAE Elevated troponin, grade 3-4 (Total (n=38)): 0 n (%)
- TRAE Genital rash, any grade (Total (n=38)): 1 (2.6) n (%)
- TRAE Genital rash, grade 3-4 (Total (n=38)): 0 n (%)
- TRAE Haematuria, any grade (Total (n=38)): 3 (7.9) n (%)
- TRAE Haematuria, grade 3-4 (Total (n=38)): 0 n (%)
- TRAE Headache, any grade (Total (n=38)): 1 (2.6) n (%)
- TRAE Headache, grade 3-4 (Total (n=38)): 0 n (%)
- TRAE Hyperhidrosis, any grade (Total (n=38)): 1 (2.6) n (%)
- TRAE Hyperhidrosis, grade 3-4 (Total (n=38)): 0 n (%)
- TRAE Hyperlipidaemia, any grade (Total (n=38)): 1 (2.6) n (%)
- TRAE Hyperlipidaemia, grade 3-4 (Total (n=38)): 0 n (%)
- TRAE Hypertension, any grade (Total (n=38)): 4 (10.5) n (%)
- TRAE Hypertension, grade 3-4 (Total (n=38)): 1 (2.6) n (%)
- TRAE Hypoaesthesia oral, any grade (Total (n=38)): 2 (5.3) n (%)
- TRAE Hypoaesthesia oral, grade 3-4 (Total (n=38)): 0 n (%)
- TRAE Hypocalcaemia, any grade (Total (n=38)): 1 (2.6) n (%)
- TRAE Hypocalcaemia, grade 3-4 (Total (n=38)): 0 n (%)
- TRAE Hypotension, any grade (Total (n=38)): 1 (2.6) n (%)
- TRAE Hypotension, grade 3-4 (Total (n=38)): 0 n (%)
- TRAE Insomnia, any grade (Total (n=38)): 1 (2.6) n (%)
- TRAE Insomnia, grade 3-4 (Total (n=38)): 0 n (%)
- TRAE Leukopenia, any grade (Total (n=38)): 3 (7.9) n (%)
- TRAE Leukopenia, grade 3-4 (Total (n=38)): 0 n (%)
- TRAE Nausea, any grade (Total (n=38)): 3 (7.9) n (%)
- TRAE Nausea, grade 3-4 (Total (n=38)): 0 n (%)
- TRAE Neuritis, any grade (Total (n=38)): 2 (5.3) n (%)
- TRAE Neuritis, grade 3-4 (Total (n=38)): 0 n (%)
- TRAE Occult blood, any grade (Total (n=38)): 2 (5.3) n (%)
- TRAE Occult blood, grade 3-4 (Total (n=38)): 0 n (%)
- TRAE Oedema peripheral, any grade (Total (n=38)): 2 (5.3) n (%)
- TRAE Oedema peripheral, grade 3-4 (Total (n=38)): 0 n (%)
- TRAE Onycholysis, any grade (Total (n=38)): 1 (2.6) n (%)
- TRAE Onycholysis, grade 3-4 (Total (n=38)): 0 n (%)
- TRAE Oropharyngeal pain, any grade (Total (n=38)): 1 (2.6) n (%)
- TRAE Oropharyngeal pain, grade 3-4 (Total (n=38)): 1 (2.6) n (%)
- TRAE PPE (Total (n=38)): 23.7%
- TRAE PPE, any grade (Total (n=38)): 9 (23.7) n (%)
- TRAE PPE, grade 3-4 (Total (n=38)): 4 (10.5) n (%)
- TRAE Paraesthesia, any grade (Total (n=38)): 1 (2.6) n (%)
- TRAE Paraesthesia, grade 3-4 (Total (n=38)): 0 n (%)
- TRAE Proteinuria, any grade (Total (n=38)): 4 (10.5) n (%)
- TRAE Proteinuria, grade 3-4 (Total (n=38)): 1 (2.6) n (%)
- TRAE Pruritus, any grade (Total (n=38)): 1 (2.6) n (%)
- TRAE Pruritus, grade 3-4 (Total (n=38)): 0 n (%)
- TRAE Rash maculo-papular, any grade (Total (n=38)): 1 (2.6) n (%)
- TRAE Rash maculo-papular, grade 3-4 (Total (n=38)): 0 n (%)
- TRAE Sinus tachycardia, any grade (Total (n=38)): 1 (2.6) n (%)
- TRAE Sinus tachycardia, grade 3-4 (Total (n=38)): 0 n (%)
- TRAE Skin fissures, any grade (Total (n=38)): 1 (2.6) n (%)
- TRAE Skin fissures, grade 3-4 (Total (n=38)): 1 (2.6) n (%)
- TRAE Supraventricular extrasystoles, any grade (Total (n=38)): 1 (2.6) n (%)
- TRAE Supraventricular extrasystoles, grade 3-4 (Total (n=38)): 0 n (%)
- TRAE Thrombocytopenia, any grade (Total (n=38)): 3 (7.9) n (%)
- TRAE Thrombocytopenia, grade 3-4 (Total (n=38)): 2 (5.3) n (%)
- TRAE Upper respiratory tract infection, any grade (Total (n=38)): 1 (2.6) n (%)
- TRAE Upper respiratory tract infection, grade 3-4 (Total (n=38)): 0 n (%)
- TRAE Urinary retention, any grade (Total (n=38)): 1 (2.6) n (%)
- TRAE Urinary retention, grade 3-4 (Total (n=38)): 0 n (%)
- TRAE Urinary tract infection, any grade (Total (n=38)): 3 (7.9) n (%)
- TRAE Urinary tract infection, grade 3-4 (Total (n=38)): 0 n (%)
- TRAE Ventricular arrhythmia, any grade (Total (n=38)): 3 (7.9) n (%)
- TRAE Ventricular arrhythmia, grade 3-4 (Total (n=38)): 0 n (%)
- TRAE Ventricular extrasystoles, any grade (Total (n=38)): 1 (2.6) n (%)
- TRAE Ventricular extrasystoles, grade 3-4 (Total (n=38)): 0 n (%)
- TRAE Vomiting, any grade (Total (n=38)): 2 (5.3) n (%)
- TRAE Vomiting, grade 3-4 (Total (n=38)): 0 n (%)
- TRAE Weight loss, any grade (Total (n=38)): 1 (2.6) n (%)
- TRAE Weight loss, grade 3-4 (Total (n=38)): 0 n (%)
- TRAE constipation (Total (n=38)): 21.1%
- TRAE dysgeusia (Total (n=38)): 23.7%
- TRAE elevated ALT (Total (n=38)): 36.8%
- TRAE elevated AST (Total (n=38)): 28.9%
- grade ≥ 3 TEAEs, patients (Total (n=38)): 36.8%
- grade ≥ 3 TRAE PPE (Total (n=38)): 10.5%
- grade ≥ 3 TRAEs, patients (Total (n=38)): 28.9%
- patients with at least one TEAE (Total (n=38)): All the 38 patients
- treatment-related deaths (Total (n=38)): No treatment-related deaths occurred
- TRAE leading to treatment discontinuation, patients (Total (n=38), grade 3 PPE in 400 mg BID cohort): 2.6%
- treatment-related SAE, patients (Total (n=38), thrombocytopenia in 600 mg QD cohort): 2.6%
